Assay results reported in patent publication US12129246B1, “Hydroquinazoline derivatives for the treatment of a disease or disorder” (Novartis AG, priority 2023, dated 2024).
Like-named read-outs stand apart in the source and are kept apart here.

Experiments:
[1] = target: T1, human NPR1 (Homo sapiens, UniProt P16066); experiment: Cellular cGMP production assay, human NPR1 expressing CHO-K1 cells (CisBio HTRF); format: cell-based; conditions: for AC50: cGMP production, 30 min at 37° C., 12-point dose-response from 30 μM; for Human NPR1 Amax (% of ANP): maximum cGMP production as percentage of the maximum cGMP produced with ANP
T1 construct: host or cells: CHO-K1
T1 sequence (P16066 33-1061): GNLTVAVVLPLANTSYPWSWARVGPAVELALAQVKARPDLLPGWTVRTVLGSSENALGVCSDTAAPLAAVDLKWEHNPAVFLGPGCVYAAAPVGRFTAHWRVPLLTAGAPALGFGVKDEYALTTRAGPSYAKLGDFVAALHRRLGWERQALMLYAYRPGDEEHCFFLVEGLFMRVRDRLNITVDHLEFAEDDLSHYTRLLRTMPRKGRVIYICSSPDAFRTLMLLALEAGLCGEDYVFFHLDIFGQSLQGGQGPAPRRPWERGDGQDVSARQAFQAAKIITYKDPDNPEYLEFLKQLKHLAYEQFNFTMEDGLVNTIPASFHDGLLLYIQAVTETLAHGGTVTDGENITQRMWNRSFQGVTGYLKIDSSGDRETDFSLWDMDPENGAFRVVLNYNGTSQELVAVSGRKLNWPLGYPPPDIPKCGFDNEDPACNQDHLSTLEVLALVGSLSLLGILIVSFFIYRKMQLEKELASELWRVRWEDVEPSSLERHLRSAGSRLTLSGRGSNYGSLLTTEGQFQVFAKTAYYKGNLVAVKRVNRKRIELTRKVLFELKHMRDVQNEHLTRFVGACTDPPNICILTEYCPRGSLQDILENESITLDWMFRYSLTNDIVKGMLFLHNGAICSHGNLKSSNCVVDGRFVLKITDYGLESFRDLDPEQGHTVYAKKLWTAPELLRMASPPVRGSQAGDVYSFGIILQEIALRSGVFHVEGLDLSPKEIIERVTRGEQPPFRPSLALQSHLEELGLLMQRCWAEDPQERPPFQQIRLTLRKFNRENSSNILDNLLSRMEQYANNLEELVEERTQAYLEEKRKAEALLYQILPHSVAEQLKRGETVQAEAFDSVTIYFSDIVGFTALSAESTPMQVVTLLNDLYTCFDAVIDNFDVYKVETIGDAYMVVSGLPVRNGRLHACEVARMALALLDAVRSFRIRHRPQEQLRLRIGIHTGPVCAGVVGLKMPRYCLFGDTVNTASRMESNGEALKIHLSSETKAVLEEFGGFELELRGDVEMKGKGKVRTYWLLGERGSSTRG
How it was run: (§1)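 CHO-K1 cells expressing human or cynomolgus NPR1 treated with compound (12-point, 3-fold dilutions from 30 μM top) in PBS+0.1% BSA with 1 mM IBMX, 30 min at 37° C. After lysis, cGMP quantified by HTRF competition (cGMP-d2/anti-cGMP-cryptate, 1 h RT, 665 nm emission) against a calibrator standard curve.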

[2] = target: monkey NPR1 (Macaca fascicularis, UniProt A0A7N9DBT9); experiment: Cellular cGMP production assay, monkey NPR1 expressing CHO-K1 cells (CisBio HTRF); format: cell-based; conditions: for Monkey NPR1 Amax (% of ANP): maximum cGMP production as percentage of the maximum cGMP produced with ANP
monkey NPR1, sequence (A0A7N9DBT9 entry or part of it): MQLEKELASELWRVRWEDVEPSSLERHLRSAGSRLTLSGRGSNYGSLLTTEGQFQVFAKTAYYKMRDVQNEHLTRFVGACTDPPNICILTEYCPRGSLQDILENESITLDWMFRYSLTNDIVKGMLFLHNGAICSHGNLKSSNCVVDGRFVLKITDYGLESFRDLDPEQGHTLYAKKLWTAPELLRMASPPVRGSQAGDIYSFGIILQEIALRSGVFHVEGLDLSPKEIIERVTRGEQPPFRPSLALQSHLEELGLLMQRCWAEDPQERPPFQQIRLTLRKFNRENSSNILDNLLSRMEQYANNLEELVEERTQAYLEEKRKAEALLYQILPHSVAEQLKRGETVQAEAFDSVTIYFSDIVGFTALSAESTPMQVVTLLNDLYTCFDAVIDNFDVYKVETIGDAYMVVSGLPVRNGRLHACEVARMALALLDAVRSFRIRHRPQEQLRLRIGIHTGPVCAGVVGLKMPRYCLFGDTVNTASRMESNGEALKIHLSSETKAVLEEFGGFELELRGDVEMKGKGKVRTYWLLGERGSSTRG
How it was run: as §1

[3] = cGMP production, monkey NPR1 CHO-K1 cells, 30 min at 37° C., 12-point dose-response from 30 μM, read-out: Monkey NPR1 AC50

Row | Structure (SMILES) | AC50 [1] [µM] | Human NPR1 Amax (% of ANP) [1] | AC50 [2] [µM] | Monkey NPR1 Amax (% of ANP) ([2]; monkey NPR1 CHO-K1 cells) | AC50 [2, 3] [µM]
1 | CC[C@@H](Nc1nc2c(c(N[C@@H](CN3C4CCCC3CC4)c3sc(C)nc3C)n1)C[C@H](c1cccc(F)c1)CC2)[C@H]1CC[C@H](C(=O)O)CC1 [Compound 24, (1R,4r)-4-((1R)-1-(((6R)-4-(((1S)-2-(8-azabicyclo[3.2.1]octan-8-yl)-1-(2,4-dimethylthiazol-5-yl)ethyl)amino)-6-(3-fluorophenyl)-5,6,7,8-tetrahydroquinazolin-2-yl)amino)propyl)cyclohexane-1-carboxylic acid] | 0.125 | 112.884 % of ANP | 0.102 | 128.837 % of ANP | 
2 | CC[C@H]([C@H]1CC[C@H](C(=O)O)CC1)N(C)c1nc2c(c(N[C@@H](CN3CCC[C@H](C)C3)c3cnn(C)c3)n1)C[C@H](c1ccccc1)CC2 [Compound 40, (1R,4r)-4-((R)-1-(methyl((R)-4-(((R)-1-(1-methyl-1H-pyrazol-4-yl)-2-((S)-3-methylpiperidin-1-yl)ethyl)amino)-6-phenyl-5,6,7,8-tetrahydroquinazolin-2-yl)amino)propyl)cyclohexane-1-carboxylic acid] | 0.166 | 102.476 % of ANP |  | 105.150 % of ANP | 0.127
3 | CC[C@H]([C@H]1CC[C@H](C(=O)O)CC1)N(C)c1nc2c(c(N[C@@H](CN3CCCCC3)c3cnn(CC4CC4)c3)n1)C[C@H](c1ccccc1)CC2 [Compound 147, (1R,4r)-4-((R)-1-(((R)-4-(((R)-1-(1-(cyclopropylmethyl)-1H-pyrazol-4-yl)-2-(piperidin-1-yl)ethyl)amino)-6-phenyl-5,6,7,8-tetrahydroquinazolin-2-yl)(methyl)amino)propyl)cyclohexane-1-carboxylic acid] | 1.08 | 97.612 % of ANP |  | 101.537 % of ANP | 0.671
4 | CC[C@H]([C@H]1CC[C@H](C(=O)O)CC1)N(C)c1nc2c(c(N[C@@H](CN3CCCCC3)c3cnn(C)c3)n1)CN(c1cccc(F)c1)CC2 [Compound 157, (1R,4r)-4-((R)-1-((6-(3-fluorophenyl)-4-(((R)-1-(1-methyl-1H-pyrazol-4-yl)-2-(piperidin-1-yl)ethyl)amino)-5,6,7,8-tetrahydropyrido[4,3-d]pyrimidin-2-yl)(methyl)amino)propyl)cyclohexane-1-carboxylic acid] | 1.43 | 99.549 % of ANP |  | 105.667 % of ANP | 0.999
5 | CC[C@@H](Nc1nc2c(c(N[C@@H](CN3CCCC(F)(F)CC3)c3cnn(CC)c3)n1)C[C@H](c1ccccc1)CC2)[C@H]1CC[C@H](C(=O)O)CC1 [Compound 137, (1R,4r)-4-((R)-1-(((R)-4-(((R)-2-(4,4-difluoroazepan-1-yl)-1-(1-ethyl-1H-pyrazol-4-yl)ethyl)amino)-6-phenyl-5,6,7,8-tetrahydroquinazolin-2-yl)amino)propyl)cyclohexane-1-carboxylic acid] | 0.84 | 95.603 % of ANP |  | 99.351 % of ANP | 0.379
6 | CC[C@@H](N(C)c1nc2c(c(N[C@@H](CN3CCC[C@H](C)C3)c3cnn(C)c3)n1)C[C@H](c1cccc(F)c1)CC2)C12CC(C(=O)O)(C1)C2 [Compound 9, 3-((R)-1-(((R)-6-(3-fluorophenyl)-4-(((R)-1-(1-methyl-1H-pyrazol-4-yl)-2-((S)-3-methylpiperidin-1-yl)ethyl)amino)-5,6,7,8-tetrahydroquinazolin-2-yl)(methyl)amino)propyl)bicyclo[1.1.1]pentane-1-carboxylic acid] | 0.088 | 95.056 % of ANP |  | 95.667 % of ANP | 0.045
